Experimental data from EP4032896A1, “THIAZOLOPYRIMIDONES AS INHIBITORS OF DDR1/2 AND THERAPEUTIC USES THEREOF” (Fundación del Sector Público Estatal Centro Nacional de …, priority 2021, dated 2022).

Tests used:
DDR2 = target: T1, DDR2 (Homo sapiens, UniProt Q16832); experiment: LanthaScreen Eu-Kinase Binding Assay (TR-FRET tracer displacement), DDR2; conditions: catalytic domain GST Tag DDR2; Kinase Tracer 178
T1 construct: The enzymes were purchased as a catalytic domain GST Tag DDR1(#PR6913A) and DDR2 (#PR7167A); purchased ThermoFisher PR7167A
T1 sequence (Q16832 563-849 limits assumed): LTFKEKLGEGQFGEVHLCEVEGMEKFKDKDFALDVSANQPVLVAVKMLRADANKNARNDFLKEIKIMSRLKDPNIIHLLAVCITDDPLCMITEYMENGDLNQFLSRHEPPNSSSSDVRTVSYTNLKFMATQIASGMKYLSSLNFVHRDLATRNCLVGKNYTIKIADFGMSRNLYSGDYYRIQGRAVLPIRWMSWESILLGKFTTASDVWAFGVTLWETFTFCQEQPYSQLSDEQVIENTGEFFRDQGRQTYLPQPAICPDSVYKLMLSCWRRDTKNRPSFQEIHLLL
Procedure, shortened: (§1)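 TR-FRET displacement of Alexa Fluor Kinase Tracer 178 from GST-tagged catalytic-domain DDR1 or DDR2, detected with Eu-labelled anti-GST antibody under kit-recommended conditions. The acceptor/donor emission ratio (665/615 nm) was plotted against inhibitor concentration and fitted to a sigmoid dose-response curve.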

DDR1 [1] = target: T2, DDR1 (Mus musculus, UniProt Q03146); experiment: Cellular assay: inhibition of Collagen I-induced DDR1 autophosphorylation in HEK293T cells transiently transfected with DDR1 plasmid (Western blot); type: cell-based, human; conditions: pcDNA3.1 DDR1 WT mouse plasmid, compound 1 h, then 10 µg/mL Collagen I 1 h, P-DDR1 (Y513), read-out: pDDR1 EC50
T2 construct: expressed in transfected cells; host or cells: HEK293T
T2 sequence (Q03146 20-911): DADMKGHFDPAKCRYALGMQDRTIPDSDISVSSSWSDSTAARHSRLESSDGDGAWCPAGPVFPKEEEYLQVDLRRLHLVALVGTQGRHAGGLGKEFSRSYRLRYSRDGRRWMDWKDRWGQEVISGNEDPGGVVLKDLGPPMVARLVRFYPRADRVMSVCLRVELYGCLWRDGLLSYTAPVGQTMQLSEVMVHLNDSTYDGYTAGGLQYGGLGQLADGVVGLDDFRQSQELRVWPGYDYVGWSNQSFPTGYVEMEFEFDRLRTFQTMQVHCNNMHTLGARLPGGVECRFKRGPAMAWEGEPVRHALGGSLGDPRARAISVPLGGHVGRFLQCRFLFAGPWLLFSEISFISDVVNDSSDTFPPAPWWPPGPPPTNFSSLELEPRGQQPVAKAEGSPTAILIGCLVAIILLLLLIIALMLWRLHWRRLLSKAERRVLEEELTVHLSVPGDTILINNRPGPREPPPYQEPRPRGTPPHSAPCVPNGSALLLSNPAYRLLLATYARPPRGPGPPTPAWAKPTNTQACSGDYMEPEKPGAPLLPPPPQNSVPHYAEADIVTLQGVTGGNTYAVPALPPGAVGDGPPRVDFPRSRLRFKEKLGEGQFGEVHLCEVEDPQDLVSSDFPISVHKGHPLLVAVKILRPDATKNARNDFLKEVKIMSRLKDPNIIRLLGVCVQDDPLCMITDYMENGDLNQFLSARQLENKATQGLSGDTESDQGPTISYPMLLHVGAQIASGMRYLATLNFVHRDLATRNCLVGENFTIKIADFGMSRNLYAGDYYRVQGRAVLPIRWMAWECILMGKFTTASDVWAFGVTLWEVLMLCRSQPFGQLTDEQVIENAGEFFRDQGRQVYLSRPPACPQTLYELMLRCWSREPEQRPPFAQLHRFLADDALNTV
Description: DDR1/2 cellular assay: Transient transfection of HEK293T cells with DDR1 plasmid is used to study the inhibition of the autophosphorylation of DDR1 induced by Collagen I in cells. HEK293T are seeded, 6x10^5 cells per well in 6-well plates and incubated for 6 h at 37 °C, 5% CO2. Then, cells are transfected using Effectene reactive (Quiagen) with pcDNA3.1 DDR1 WT mouse plasmid. Cells are incubated with transfection complexes under normal growth conditions for 24 h. After that, medium is replaced with fresh medium and cells are incubated for an additional 18 h. Eight serial 1:3 compound dilutions are made in DMSO. The compounds are added to each well of 6 well cell plates and are incubated at 37 °C under CO2 atmosphere 1 h. DDR1's autophosphorylation is stimulated by 1h treatment with 10 µg/mL Collagen I. Then, cells are washed in PBS, lyse adding 100 µl of complete RIPA protein lysis buffer (RIPA Buffer, 1 mM DTT, 5 mM Bezamidine, 10 µg/mL Aprotinin, 10 µg/mL Leupeptin, 710 ng/mL Pepstatin A, 100 µg/mL Trypsin Inhibitor, 40 µg/mL Bestatin, completed with PhosSTOP EASYpack and complete Mini, EDTA-free) and incubated 20 minutes at 4 °C and then centrifugated. Lysates are kept at -80 °C. The protein content of the lysates is determined by DC protein assay (Biorad, Ref. 5000116). The proteins are resolved by SDS-PAGE and transferred to nitrocellulose membrane (GE Healthcare #10600003). The membranes are incubated overnight at 4 °C with antibodies specific for DDR1 (D1G6) (Cell signaling #5583), P-DDR1 (Y513) (E1N8F) (Cell Signaling # 14531) they are washed and then incubated with Alexa Fluor 680 goat anti-rabbit IgG secondary antibodies (Invitrogen, A21076). The bands are visualized and quantified using an Odyssey infrared imaging system (Li-Cor Biosciences). The percentage of DDR1 phosphorylation is finally plotted against concentration for each compound and EC50s for intracellular DDR1 inhibition are calculated using ActivityBase from IDBS.

DDR1 [2] = target: T3, DDR1 (Homo sapiens, UniProt Q08345); experiment: LanthaScreen Eu-Kinase Binding Assay (TR-FRET tracer displacement), DDR1; conditions: catalytic domain GST Tag DDR1; Kinase Tracer 178
T3 construct: The enzymes were purchased as a catalytic domain GST Tag DDR1(#PR6913A); purchased ThermoFisher PR6913A
Procedure, shortened: as §1

T3 sequence (Q08345 610-905 limits assumed): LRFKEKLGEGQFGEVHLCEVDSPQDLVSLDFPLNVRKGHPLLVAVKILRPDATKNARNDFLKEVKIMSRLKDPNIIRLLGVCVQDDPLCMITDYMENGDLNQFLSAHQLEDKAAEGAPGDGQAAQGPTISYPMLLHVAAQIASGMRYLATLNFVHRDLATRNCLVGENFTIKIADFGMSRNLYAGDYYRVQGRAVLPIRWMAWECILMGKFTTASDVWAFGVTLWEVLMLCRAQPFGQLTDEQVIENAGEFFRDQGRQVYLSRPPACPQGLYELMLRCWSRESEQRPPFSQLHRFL

| SMILES | IC50 (DDR2) [nM] | EC50 (DDR1 [1]) [nM] | IC50 (DDR1 [2]) [nM] |
| --- | --- | --- | --- |
| COc1ccc(-c2c(-c3ccnc(Nc4cccc(S(N)(=O)=O)c4)n3)sc3nccc(=O)n23)cc1 [Compound 52, 3-{4-[3-(4-Methoxy-phenyl)-5-oxo-5H-thiazolo[3,2-a]pyrimidin-2-yl]-pyrimidin-2-ylamino}-benzenesulfonamide] | 40.6 | 112 | 10.9 |
| COc1ccccc1-c1c(-c2ccnc(Nc3ccc(N4CCN(C)CC4)cc3)n2)sc2nccc(=O)n12 [Compound 48, 3-(2-Methoxy-phenyl)-2-{2-[4-(4-methyl-piperazin-1-yl)-phenylamino]-pyrimidin-4-yl}-thiazolo[3,2-a]pyrimidin-5-one] | 71.2 | 27.5 | 19.3 |
| CN1CCN(c2ccc(Nc3nccc(-c4sc5nccc(=O)n5c4-c4cccc(Cl)c4)n3)cc2)CC1 [Compound 42, 3-(3-Chloro-phenyl)-2-{2-[4-(4-methyl-piperazin-1-yl)-phenylamino]-pyrimidin-4-yl}-thiazolo[3,2-a]pyrimidin-5-one] | 17.9 | 30.7 | 5.8 |
| NS(=O)(=O)c1cccc(Nc2nccc(-c3sc4nccc(=O)n4c3-c3ccccc3)n2)c1 [Compound 30, 3-[4-(5-Oxo-3-phenyl-5H-thiazolo[3,2-a]pyrimidin-2-yl)-pyrimidin-2-ylamino]-benzenesulfonamide] | 50 | 87.4 | 13.9 |
| CN1CCN(c2ccc(Nc3nccc(-c4sc5nccc(=O)n5c4-c4ccccc4)n3)cc2)CC1 [Compound 34, 2-{2-[4-(4-Methyl-piperazin-1-yl)-phenylamino]-pyrimidin-4-yl}-3-phenyl-thiazolo[3,2-a]pyrimidin-5-one] | 39.4 | 15.7 | 13.4 |
| NS(=O)(=O)c1cccc(Nc2nccc(-c3sc4nccc(=O)n4c3-c3ccccc3Cl)n2)c1 [Compound 37, 3-{4-[3-(2-Chloro-phenyl)-5-oxo-5H-thiazolo[3,2-a]pyrimidin-2-yl]-pyrimidin-2-ylamino}-benzenesulfonamide] | 24.2 | 36 | 5.19 |
| O=c1ccnc2sc(-c3ccnc(Nc4cccc(N5CCN(CCO)CC5)c4)n3)c(-c3ccc(Cl)cc3)n12 [Compound 44, 3-(4-Chloro-phenyl)-2-(2-{3-[4-(2-hydroxy-ethyl)-piperazin-1-yl]-phenylamino}-pyrimidin-4-yl)-thiazolo[3,2-a]pyrimidin-5-one] | 11.7 | 24.9 | 2.73 |
| O=c1ccnc2sc(-c3ccnc(Nc4cccc(N5CCN(CCO)CC5)c4)n3)c(-c3ccccc3Cl)n12 [Compound 38, 3-(2-Chloro-phenyl)-2-(2-{3-[4-(2-hydroxy-ethyl)-piperazin-1-yl]-phenylamino}-pyrimidin-4-yl)-thiazolo[3,2-a]pyrimidin-5-one] | 16.6 | 28.1 | 4.22 |
| Cc1nc2sc(-c3ccnc(Nc4cccc(N5CCN(CCO)CC5)c4)n3)c(-c3ccccc3)n2c(=O)c1C [Compound 75, 2-(2-{3-[4-(2-Hydroxy-ethyl)-piperazin-1-yl]-phenylamino}-pyrimidin-4-yl)-6,7-dimethyl-3-phenyl-thiazolo[3,2-a]pyrimidin-5-one] | 55.8 | 141 | 15.3 |
